Measurements reported in patent publication US10471046B2, “Method for treating, preventing, or reducing the risk of skin infection” (Melinta Subsidiary Corp., priority 2014, dated 2019).
Converted amounts (≈) assume the structure as drawn. Where a name gives a salt, the structure may show the parent alone. Read-outs that look alike come from different tables or passages of the source.

Experiments:
S. aureus = test: Broth microdilution MIC; format: cell-based; settings: for MIC: Staphylococcus aureus, ATCC29213, S. aureus ATCC 29213
P. granulosum [1] = test: Broth microdilution MIC; format: cell-based; settings: P. granulosum ATCC 25746
F. magna [2] = test: Broth microdilution MIC; format: cell-based; settings: Finegoldia magna, ATCC15794; F. magna ATCC 15794
B. fragilis [3] = test: Agar dilution MIC (CLSI reference method); format: cell-based; settings: Bacteroides fragilis, ATCC25285; B. fragilis ATCC 25285
P. acnes = test: Agar dilution MIC (CLSI reference method); format: cell-based; settings: Cutibacterium acnes
F. magna [4] = test: Agar dilution MIC (CLSI reference method); format: cell-based; settings: Finegoldia magna, ATCC15794; F. magna ATCC 15794
G. vaginalis [5] = test: Broth microdilution MIC; format: cell-based; settings: Gardnerella vaginalis
P. granulosum [6] = test: Agar dilution MIC (CLSI reference method); format: cell-based; settings: P. granulosum ATCC 25746
G. vaginalis [7] = test: Agar dilution MIC (CLSI reference method); format: cell-based; settings: Gardnerella vaginalis
B. fragilis [8] = test: Broth microdilution MIC; format: cell-based; settings: Bacteroides fragilis, ATCC25285; B. fragilis ATCC 25285
B. thetaiotaomicron = test: microbe, parasite or virus in culture; format: cell-based; settings: for MIC: Bacteroides thetaiotaomicron, ATCC29741, read-out: MIC, broth microdilution
[9] = Solubility of salts in water by HPLC; format: physicochemical; settings: listed as HCl Salt
Protocol: In another set of experiments, solubility of various radezolid salts was determined by HPLC. Approximately 1 mL of saturated solution (with excess of solid in solution) of each salt was prepared in water. The mixture was further mixed overnight on a slurry wheel then centrifuged on a desktop centrifuge at maximum speed for ˜5 min. The supernatant was collected, and pH was measured. Solubility was determined at the native pH. Then the pH was adjusted to ˜3.5 with sodium hydroxide solution or an acid solution in which salt was generated. The supernatant was filtered through a 0.2 μm nylon syringe filter and diluted into 0.1% formic acid solution immediately after filtration for HPLC. All HPLC analyses were performed using an Agilent 1100 series liquid chromatograph equipped with a diode array detector, degasser, quaternary pump, and an autosampler. […] The column temperature was set to 30° C., and the detector wavelength was 270 nm with a bandwidth of 8 nm and a reference wavelength of 360 nm. The mobile phase A was 0.1% formic acid in water (HPLC grade), mobile phase B was 0.1% formic acid in methanol (HPLC grade). […] The injection volume was 5 μl.

[10] = Approximate solubility in solvents by aliquot addition; format: physicochemical; settings: organic solvent or mixture, thermodynamic from solid
Protocol: Solubilities of the radezolid free base and radezolid HCl salt in various solvents were estimated and are shown in Tables 10 and 11, respectively, below. A weighed sample was treated with aliquots of test solvent at ambient temperature. Complete dissolution of the test material was determined by visual inspection. Solubility was estimated based on the total solvent used to provide complete dissolution. The actual solubility may be greater than the approximate solubility calculated because of the use of solvent aliquots that were too large or due to a slow rate of dissolution. […] If complete dissolution was achieved as a result of only one aliquot addition, the solubility is expressed as “greater than.” The approximate solubilities were rounded to the nearest whole number.

[11] = format: physicochemical; settings: radezolid salt forms in HPLC grade water, ambient temperature
[12] = Dynamic vapor sorption/desorption (DVS); format: physicochemical; settings: radezolid salts
Protocol: Dynamic vapor sorption/desorption (DVS) data were collected on a VTI SGA-100 Vapor Sorption Analyzer. Sorption and desorption data were collected over a range of 5% to 95% relative humidity (RH) at 10% RH intervals under a nitrogen purge. Samples were not dried prior to analysis. Equilibrium criteria used for analysis were less than 0.0100% weight change in 5 minutes, with a maximum equilibration time of 3 hours if the weight criterion was not met. Data were not corrected for the initial moisture content of the samples. Sodium chloride and polyvinylpyrrolidine (PVP) were used as calibration standards.

[13] = in vivo
Enterococcus faecalis = test: MIC against ribosome-based resistance phenotypes; format: cell-based; settings: read-out: Minimum Inhibitory Concentration (MIC)
Description: (§1) Furthermore, the antibiotic compounds can be assayed for anti-proliferative or anti-infective properties on a cellular level. For example, where the target organism is a microorganism, the activity of compounds of interest can be assayed by growing the microorganisms of interest in media either containing or lacking the compound. Growth inhibition can be indicative that the molecule could be acting as a protein synthesis inhibitor. […] For this purpose, a panel of bacterial strains can be assembled to include a variety of target pathogenic species, some containing resistance mechanisms that have been characterized. Use of such a panel of organisms permits the determination of structure-activity relationships not only in regards to potency and spectrum, but also with a view to obviating resistance mechanisms.

Staphylococcus aureus = test: MIC against ribosome-based resistance phenotypes; format: cell-based; settings: ATCC29213, Staphylococcus aureus ATCC29213, phenotype QC, read-out: Minimum Inhibitory Concentration (MIC)
Description: as §1

[14] = ATCC14018, G. vaginalis ATCC 14018
[15] = ATCC49145, G. vaginalis ATCC 49145

CCC[C@@H]1C[C@@H](C(=O)N[C@@H]([C@H]2O[C@H](SC)[C@H](O)[C@@H](O)[C@H]2O)[C@H](C)Cl)N(C)C1 [Clindamycin, clindamycin]
MIC (S. aureus): 0.25 µg/mL (≈ 0.588 µM) | MIC (P. granulosum [1]): 1 µg/mL (≈ 2.35 µM) | MIC (F. magna [2]): 0.5 µg/mL (≈ 1.18 µM) | MIC (B. fragilis [3]): 2 µg/mL (≈ 4.71 µM) | MIC (P. acnes; ATCC11827, P. acnes ATCC 11827): ≤ 0.06 µg/mL | MIC (P. acnes; ATCC11828, P. acnes ATCC 11828): 0.125 µg/mL (≈ 0.294 µM) | MIC (P. acnes; ATCC29399, P. acnes ATCC 29399): ≤ 0.06 µg/mL | MIC (F. magna [4]): 1 µg/mL (≈ 2.35 µM) | MIC (G. vaginalis [5]; [14]): 0.125 µg/mL (≈ 0.294 µM) | MIC (G. vaginalis [5]; [15]): ≤ 0.06 µg/mL | MIC (P. granulosum [6]): 1 µg/mL (≈ 2.35 µM) | MIC (G. vaginalis [7]; [14]): 0.25 µg/mL (≈ 0.588 µM) | MIC (G. vaginalis [7]; [15]): 0.125 µg/mL (≈ 0.294 µM) | MIC (B. fragilis [8]): 1 µg/mL (≈ 2.35 µM)

Cc1ncc([N+](=O)[O-])n1CCO [MET, metronidazole]
MIC (S. aureus): > 32 µg/mL | MIC (P. granulosum [1]): 1 µg/mL (≈ 5.84 µM) | MIC (F. magna [2]): 0.125 µg/mL (≈ 0.73 µM) | MIC (B. thetaiotaomicron): 4 µg/mL (≈ 23.4 µM) | MIC (G. vaginalis [5]; [14]): 8 µg/mL (≈ 46.7 µM) | MIC (G. vaginalis [5]; [15]): 4 µg/mL (≈ 23.4 µM) | MIC (B. fragilis [8]): 0.5 µg/mL (≈ 2.92 µM)

C[C@H]1c2cccc(O)c2C(=O)C2=C(O)[C@]3(O)C(=O)C(C(N)=O)=C(O)[C@@H](N(C)C)[C@@H]3[C@@H](O)[C@@H]21 [DOX, doxycycline]
MIC difference relative to radezolid MIC (S. aureus; S. aureus, doxycycline and clindamycin: MICs lower than radezolid): 4 fold | MIC (S. aureus): 0.5 µg/mL (≈ 1.13 µM) | MIC (P. granulosum [1]): 0.25 µg/mL (≈ 0.563 µM) | MIC (F. magna [2]): 0.125 µg/mL (≈ 0.281 µM) | MIC difference relative to radezolid MIC (B. thetaiotaomicron; B. thetaiotaomicron, doxycycline: more potent than radezolid): 4 fold | MIC (B. thetaiotaomicron): 2 µg/mL (≈ 4.5 µM) | MIC (G. vaginalis [5]; [14]): 0.5 µg/mL (≈ 1.13 µM) | MIC (G. vaginalis [5]; [15]): 32 µg/mL (≈ 72 µM) | MIC (B. fragilis [8]): ≤ 0.06 µg/mL

CC(=O)NC[C@H]1CN(c2ccc(-c3ccc(CNCc4cnn[nH]4)cc3)c(F)c2)C(=O)O1 [Hydrochloride, (5S)—N-[3-(2-Fluoro-4′-{[(1H-[1,2,3]triazol-4-ylmethyl)-amino]-methyl}-biphenyl-4-yl)-2-oxo-oxazolidin-5-ylmethyl]-acetamide chloride]
Solubility at Adjusted pH ([9]; radezolid salts in water by HPLC at 23° C., pH adjusted to ~3.5): 2.0 mg/mL | Native pH ([9]; supernatant of saturated salt solution in water): 4.6 | solubility ([10]; 1-butanol, Table 11: 1-Butanol, material never went into solution): < 2000 µg/mL | solubility ([10]; 2,2,2-trifluoroethanol (TFE), Table 11: 2,2,2-trifluoroethanol (TFE)): ≥ 6000 µg/mL | solubility ([10]; 2-butanone, Table 11: 2-Butanone, material never went into solution): < 2000 µg/mL | solubility ([10]; 2-propanol, Table 11: 2-Propanol, material never went into solution): < 2000 µg/mL | solubility ([10]; HFIPA/THF, Table 11: HFIPA/THF): ≥ 74000 µg/mL | solubility ([10]; HFIPA/dioxane (9:1), Table 11: HFIPA/Dioxane (9:1)): ≥ 52000 µg/mL | solubility ([10]; HFIPA/ethanol (5:1), Table 11: HFIPA/Ethanol (5:1)): ≥ 80000 µg/mL | solubility ([10]; dioxane, Table 11: Dioxane, material never went into solution): < 2000 µg/mL | solubility ([10]; ethanol, Table 11: Ethanol, material never went into solution): < 2000 µg/mL | solubility ([10]; hexafluoroisopropanol (HFIPA), Table 11: Hexafluoroisopropanol (HFIPA)): ≥ 225000 µg/mL | solubility ([10]; methanol, Table 11: Methanol, material never went into solution): < 2000 µg/mL | solubility ([10]; propionitrile, Table 11: Propionitrile, material never went into solution): < 2000 µg/mL | solubility ([10]; tert-butanol, Table 11: Tert-butanol, material never went into solution): < 5000 µg/mL | solubility ([10]; tetrahydrofuran (THF), Table 11: Tetrahydrofuran (THF), material never went into solution): < 2000 µg/mL | solubility [11]: <30 µg/mL | DVS desorption: weight loss from 95 to 5% RH [12]: Desorption: 0.069% weight loss | DVS sorption: weight gain from 5 to 95% RH [12]: 0.064% weight gain from 5 to | DVS sorption: weight gain upon equilibration at 5% RH [12]: Sorption: 0.03% weight gain

CC[C@H]1OC(=O)[C@H](C)[C@@H](O[C@H]2C[C@@](C)(OC)[C@@H](O)[C@H](C)O2)[C@H](C)[C@@H](O[C@@H]2O[C@H](C)C[C@H](N(C)C)[C@H]2O)[C@](C)(O)C[C@@H](C)C(=O)[C@H](C)[C@@H](O)[C@]1(C)O [ERY, erythromycin]
MIC (S. aureus): 1 µg/mL (≈ 1.36 µM) | MIC (P. granulosum [1]): 16 µg/mL (≈ 21.8 µM) | MIC (F. magna [2]): 4 µg/mL (≈ 5.45 µM) | MIC (B. thetaiotaomicron): 16 µg/mL (≈ 21.8 µM) | MIC (G. vaginalis [5]; [14]): ≤ 0.06 µg/mL | MIC (G. vaginalis [5]; [15]): ≤ 0.06 µg/mL | MIC (B. fragilis [8]): 16 µg/mL (≈ 21.8 µM)

CC(=O)NC[C@H]1CN(c2ccc(-c3ccc(CNCc4cnn[nH]4)cc3)c(F)c2)C(=O)O1.Cl [model compound]
solubility of salt in water (pH 4): 2600 µg/mL | solubility of salt in water (pH 5.4): 200 µg/mL | solubility of salt in water (pH 6.5): 60 µg/mL | intrinsic solubility (pH 6.8): 10 µg/mL | caco-2 permeability (caco-2): 0.5 ×10⁻⁶ cm/s | positive food effect [13]: 4 ×

CN(C)[C@@H]1C(O)=C(C(N)=O)C(=O)[C@@]2(O)C(O)=C3C(=O)c4c(O)cccc4[C@@](C)(O)[C@H]3C[C@@H]12 [TET, tetracycline]
MIC (S. aureus): 1 µg/mL (≈ 2.25 µM) | MIC (P. granulosum [1]): 0.25 µg/mL (≈ 0.563 µM) | MIC (F. magna [2]): 0.25 µg/mL (≈ 0.563 µM) | MIC (B. thetaiotaomicron): 8 µg/mL (≈ 18 µM) | MIC (G. vaginalis [5]; [14]): 0.5 µg/mL (≈ 1.13 µM) | MIC (G. vaginalis [5]; [15]): > 32 µg/mL | MIC (B. fragilis [8]): 0.25 µg/mL (≈ 0.563 µM)

CC[C@H]1OC(=O)[C@H](C)[C@@H](O[C@H]2C[C@@](C)(OC)[C@@H](O)[C@H](C)O2)[C@H](C)[C@@H](O[C@@H]2O[C@H](C)C[C@H](N(C)C)[C@H]2O)[C@](C)(O)C[C@@H](C)CN(C)[C@H](C)[C@@H](O)[C@]1(C)O [Azithromycin, azithromycin]
MIC (Enterococcus faecalis; ATCC29212, Enterococcus faecalis ATCC29212, phenotype QC): 8 µg/mL (≈ 10.7 µM) | MIC (Enterococcus faecalis; ATCC29212, Enterococcus faecalis ATCC29212-P5, Lin-R (G2576U)): 8 µg/mL (≈ 10.7 µM) | MIC (Enterococcus faecalis): 128 µg/mL (≈ 171 µM) | MIC (Staphylococcus aureus): 1 µg/mL (≈ 1.34 µM)
